Data published in patent US7524864B2, “Methods of treating sleep disorders” (Hypnion, Inc., priority 2004, dated 2009).
Where two headings read alike, the source gives them in different places.

Tests used:
[1] = biological target: T1, human recombinant M1 expressed in CHO cells (Homo sapiens, UniProt P11229); conditions: reference compounds; read-out: Ki of reference compounds in M1 binding assay; cited from earlier work
T1 construct: purchased PerkinElmer, Inc., Wellesley, Mass; host or cells: CHO cells
T1 sequence (P11229 1-460): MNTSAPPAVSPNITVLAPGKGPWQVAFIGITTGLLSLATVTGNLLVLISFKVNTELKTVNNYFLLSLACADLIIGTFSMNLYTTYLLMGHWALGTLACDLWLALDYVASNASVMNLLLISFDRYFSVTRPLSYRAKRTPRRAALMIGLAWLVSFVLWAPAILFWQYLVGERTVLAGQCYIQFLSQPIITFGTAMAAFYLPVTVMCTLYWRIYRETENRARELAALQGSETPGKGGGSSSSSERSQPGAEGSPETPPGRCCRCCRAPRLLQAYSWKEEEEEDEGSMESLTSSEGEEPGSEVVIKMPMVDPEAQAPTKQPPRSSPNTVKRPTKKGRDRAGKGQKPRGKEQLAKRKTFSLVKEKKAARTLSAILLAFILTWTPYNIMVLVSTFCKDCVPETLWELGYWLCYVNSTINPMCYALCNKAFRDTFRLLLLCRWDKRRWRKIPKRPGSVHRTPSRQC

H1 receptor = biological target: T2, H1 receptor (Bos taurus, UniProt P30546); experiment: H1 histamine receptor competitive binding assay ([3H]pyrilamine displacement); design: species or system bovine
T2 construct: the receptors are obtained from bovine cerebellar membrane tissue; from tissue; host or cells: bovine cerebellar membranes
T2 sequence (P30546 whole entry): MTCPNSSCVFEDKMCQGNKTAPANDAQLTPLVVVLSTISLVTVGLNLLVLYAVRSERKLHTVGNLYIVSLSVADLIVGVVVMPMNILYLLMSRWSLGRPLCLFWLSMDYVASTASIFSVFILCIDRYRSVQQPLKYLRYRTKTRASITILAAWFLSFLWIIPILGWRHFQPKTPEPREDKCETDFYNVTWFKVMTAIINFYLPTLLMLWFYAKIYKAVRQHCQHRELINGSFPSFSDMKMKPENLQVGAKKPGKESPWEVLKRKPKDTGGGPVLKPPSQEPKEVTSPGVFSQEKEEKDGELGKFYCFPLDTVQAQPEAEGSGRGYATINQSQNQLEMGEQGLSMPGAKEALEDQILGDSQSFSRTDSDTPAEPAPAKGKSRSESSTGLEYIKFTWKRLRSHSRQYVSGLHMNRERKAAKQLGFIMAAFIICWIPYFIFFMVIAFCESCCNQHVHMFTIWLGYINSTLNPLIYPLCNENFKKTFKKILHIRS

[2] = biological target: T3, human recombinant M3 expressed in CHO cells (Homo sapiens, UniProt P20309); experiment: M3 muscarinic receptor binding assay ([3H]-scopolamine, N-methyl chloride displacement); conditions: Table 5; read-out: M3 inhibition constant Ki
T3 construct: purchased PerkinElmer, Inc., Wellesley, Mass; host or cells: CHO cells
T3 sequence (P20309 whole entry): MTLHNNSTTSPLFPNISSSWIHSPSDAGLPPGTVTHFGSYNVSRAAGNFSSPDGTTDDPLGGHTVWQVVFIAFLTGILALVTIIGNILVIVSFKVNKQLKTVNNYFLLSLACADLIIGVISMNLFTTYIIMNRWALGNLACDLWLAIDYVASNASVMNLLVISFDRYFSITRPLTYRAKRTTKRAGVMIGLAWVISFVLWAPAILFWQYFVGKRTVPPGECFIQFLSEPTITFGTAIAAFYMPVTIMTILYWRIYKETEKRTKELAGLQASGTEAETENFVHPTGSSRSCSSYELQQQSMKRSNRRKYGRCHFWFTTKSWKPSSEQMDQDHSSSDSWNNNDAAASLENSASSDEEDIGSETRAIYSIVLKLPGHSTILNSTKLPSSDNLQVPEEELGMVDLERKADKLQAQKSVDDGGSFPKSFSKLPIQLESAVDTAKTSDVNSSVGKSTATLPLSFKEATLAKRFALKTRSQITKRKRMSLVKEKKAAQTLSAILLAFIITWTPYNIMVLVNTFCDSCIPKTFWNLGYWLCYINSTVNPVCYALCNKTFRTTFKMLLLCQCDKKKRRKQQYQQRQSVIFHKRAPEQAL

[3] = biological target: T1, human recombinant M1 expressed in CHO cells; experiment: M1 muscarinic receptor binding assay ([3H]-scopolamine, N-methyl chloride displacement); conditions: Table 5; read-out: M1 inhibition constant Ki
[4] = system: sleep (NREM, LUSB) in male Wistar rats; experiment: Sleep-wakefulness monitoring (SCORE-2000, EEG/EMG) in male Wistar rats; assay type: in vivo, rat; conditions: oral, CT-18
Protocol: Sleep-wakefulness, locomotor activity and body temperature are monitored in male Wistar rats treated with a test compound (i.e., doxepin analog) initially at a concentration of 10 mg/kg. Higher and lower doses are assayed for select compounds (e.g., as high as 45 mg/kg, and as low as necessary to establish a no-effect dose). Treatments are administered at CT-18, the peak of the activity dominated period (6 hours after lights-off), and produced soporific (sleep-inducing) effects characterized by increased non-REM sleep time, increased sleep continuity, but without evidence of REM sleep inhibition or rebound insomnia.
Sleep-wakefulness, locomotor activity and body temperature are monitored in vivo with the disclosed sleep-inducing agents. Adult, male Wistar rats (250 g at time of surgery, Charles River Laboratories, Wilmington Mass.) were anesthetized (2% isoflourane in medical grade oxygen) and surgically prepared with a cranial implant to permit chronic electro-encephalogram (EEG) and electromyogram (EMG) recording. Body temperature and locomotor activity were monitored via a miniature transmitter (Mini-Mitter, Bend, Oreg.) surgically placed in the abdomen. The cranial implant consisted of stainless steel screws (two frontal [+3.2 AP from bregma, ±2.0 ML] and two occipital [−6.9 AP, ±5.5 ML]) for EEG recording. Two Teflon®-coated stainless steel wires were positioned under the nuchal trapezoid muscles for EMG recording. All leads were soldered to a miniature connector prior to surgery, and gas sterilized in ethylene oxide. The implant assembly was affixed to the skull with dental acrylic. A minimum of three weeks was allowed for surgical recovery.
Each rat is permanently housed in its own individual recording cage located within separate, ventilated compartments of custom-designed stainless steel cabinets. Each cage is enhanced with a filter-top riser and low-torque swivel-commutator. Food and water are available ad libitum. A 24-hr light-dark cycle (12 hours light, 12 hours dark) is maintained throughout the study. Animals are undisturbed for at least 48 hours before and after treatments.
Sleep and wakefulness is determined using “SCORE-2000™”(Hypnion, Worcester, Mass.)—an internet-based sleep-wake and physiological monitoring system. The system monitored amplified EEG (bandpass 1-30 Hz), integrated EMG (bandpass 10-100 Hz), body temperature and non-specific locomotor activity (LMA) via telemetry, and drinking activity, continuously and simultaneously. Arousal states are classified on-line as non-REM (NREM) sleep, REM sleep, wake, or theta-dominated wake every 10 seconds. Total drinking and locomotor activity counts, and body temperature were quantitiated and recorded each minute, using EEG feature extraction and pattern-matching algorithms. […] The classification algorithm used individually-taught EEG-arousal-state templates, plus EMG criteria to differentiate REM sleep from theta-dominated wakefulness, plus behavior-dependent contextual rules (e.g., if the animal was drinking, it is awake). Drinking and locomotor activity intensity (LMA) are recorded as discrete events every 10 seconds, while body temperature was recorded each minute. Locomotor activity was detected by a telemetry receiver (Mini-Mitter) beneath the cage. Telemetry measures (LMA and body temperature) are not part of the scoring algorithm; thus, sleep-scoring and telemetry data were independent measures.
Compounds are administered at CT-18, the peak of the activity-dominated period, in order to ensure prior wakefulness is sufficient to interact positively with hypnotic-drug effects, and sufficient time is allowed to view the time course of the treatment effect before lights-on (6 hours post-treatment). Compounds are suspended in sterile 0.25% or 0.5% methylcellulose (1-2 ml/kg). Treatments are administered orally as a bolus.
A parallel group study design is employed. […]

[5] = biological target: T4, human recombinant M2 expressed in CHO cells (Homo sapiens, UniProt P08172); experiment: M2 muscarinic receptor binding assay ([3H]-scopolamine, N-methyl chloride displacement); conditions: Table 5; read-out: M2 inhibition constant Ki
T4 construct: purchased PerkinElmer, Inc., Wellesley, Mass; host or cells: CHO cells
T4 sequence (P08172 1-466): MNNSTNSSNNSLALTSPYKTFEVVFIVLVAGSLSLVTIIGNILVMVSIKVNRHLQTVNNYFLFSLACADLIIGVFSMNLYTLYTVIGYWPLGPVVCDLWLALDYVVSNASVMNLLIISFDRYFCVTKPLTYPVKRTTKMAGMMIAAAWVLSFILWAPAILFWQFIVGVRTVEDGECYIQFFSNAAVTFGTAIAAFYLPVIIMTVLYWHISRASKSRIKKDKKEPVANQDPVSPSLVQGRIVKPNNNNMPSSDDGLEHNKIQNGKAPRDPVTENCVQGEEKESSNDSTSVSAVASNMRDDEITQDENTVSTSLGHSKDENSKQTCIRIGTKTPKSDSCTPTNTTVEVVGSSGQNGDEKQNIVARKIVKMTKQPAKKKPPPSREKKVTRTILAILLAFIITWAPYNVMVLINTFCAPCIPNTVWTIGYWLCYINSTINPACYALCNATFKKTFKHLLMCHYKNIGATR

Row | Ki (H1 receptor; bovine H1, Table 5, read-out: H1 (bovine) inhibition constant Ki) [nM] | Ki [2] [nM] | Ki [3] [nM] | Ki [5] [nM] | Compound | Ki [1] [nM] | specificity for H1 over the muscarinic receptors (H1 receptor; H1 versus M1, M2, M3 Ki) | LUSB (longest uninterrupted sleep bout) ([4]; 3 mg/kg) [min] | LUSB (longest uninterrupted sleep bout) ([4]; 10 mg/kg) [min] | NREM ([4]; 10 mg/kg) [min] | LUSB (longest uninterrupted sleep bout) ([4]; 30 mg/kg) [min] | NREM ([4]; 30 mg/kg) [min] | LUSB (longest uninterrupted sleep bout) ([4]; 56 mg/kg) [min] | NREM ([4]; 56 mg/kg) [min] | LUSB (longest uninterrupted sleep bout) ([4]; 100 mg/kg) [min] | NREM ([4]; 100 mg/kg) [min]
1 |  |  |  |  | C[N+]1(C)CCC(OC(=O)C(c2ccccc2)c2ccccc2)CC1 [4-DAMP methiodide] | 0.27 |  |  |  |  |  |  |  |  |  | 
2 | 50.6 | > 10000 | > 10000 | > 10000 | CC(C)(CN1CCC(=C2c3ccc(F)cc3CSc3ccccc32)CC1)C(=O)O.Cl [Compound 8] |  | specific for H1 over the muscarinic receptors | 4.7 ± 3.2 | 6.3 ± 1.7 | 20 ± 5 | 10.9 ± 2.3 | 41 ± 9 | 9.3 ± 2.2 | 57 ± 7 | 13.2 ± 2.8 | 52 ± 8
